# Reference: ChEMBL document CHEMBL1201861, “Genomics of Drug Sensitity in Cancer screening data, Wellcome Trust Sanger Institute”
# Where “and” joins values, the source holds several entries; their conditions need not be identical. Identical values can stand only once. Where a SMILES comes first, the peptide text is derived from it. The star is where a group is joined. Cbz = O=C(OCc1ccccc1)*
# What was measured:
# Experiment in all cases: cells
# ASPC1 = format: functional, cell-based; conditions: Homo sapiens;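 further: growth inhibition of AsPC-1 cells, read out with a cell viability assay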
# Description: SANGER: Inhibition of human AsPC-1 cell growth in a cell viability assay.
# ChaGo-K-1 = format: functional, cell-based; conditions: Homo sapiens;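 further: growth inhibition of ChaGo-K-1 cells, read out with a cell viability assay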
# Description: SANGER: Inhibition of human ChaGo-K-1 cell growth in a cell viability assay.
# LN-405 = format: functional, cell-based; conditions: Homo sapiens
# Description: SANGER: Inhibition of human LN-405 cell growth in a cell viability assay.
# CWR22R = format: functional, cell-based; conditions: Homo sapiens, 22Rv1;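 further: growth inhibition of 22Rv1 cells, read out with a cell viability assay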
# Description: SANGER: Inhibition of human 22RV1 cell growth in a cell viability assay.
# BCPAP = format: functional, cell-based; conditions: Homo sapiens;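 further: growth inhibition of BCPAP cells, read out in a cell viability assay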
# Description: SANGER: Inhibition of human BCPAP cell growth in a cell viability assay.
# BEN = format: functional, cell-based; conditions: Homo sapiens;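 further: growth inhibition of the BEN cell line, read out with a cell viability assay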
# Description: SANGER: Inhibition of human BEN cell growth in a cell viability assay.
# NCI-H630 = format: functional, cell-based; conditions: Homo sapiens;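 further: growth inhibition of NCI-H630 cells, read out with a cell viability assay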
# Description: SANGER: Inhibition of human NCI-H630 cell growth in a cell viability assay.
# KYSE-270 = format: functional, cell-based; conditions: Homo sapiens;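 further: cell growth inhibition measured with a viability assay in the human KYSE-270 line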
# Description: SANGER: Inhibition of human KYSE-270 cell growth in a cell viability assay.
# SK-HEP1 = format: functional, cell-based, SK-HEP-1; conditions: Homo sapiens;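 further: cell viability readout used to quantify reduction in proliferation of human SK-HEP-1 cells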
# Description: SANGER: Inhibition of human SK-HEP-1 cell growth in a cell viability assay.
# NCI-H358 = format: functional, cell-based; conditions: Homo sapiens;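 further: growth inhibition of NCI-H358 human cells, read out with a cell viability assay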
# Description: SANGER: Inhibition of human NCI-H358 cell growth in a cell viability assay.
# JEG-3 = format: functional, cell-based; conditions: Homo sapiens;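 further: growth inhibition of human JEG-3 cells, read out with a cell viability assay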
# Description: SANGER: Inhibition of human JEG-3 cell growth in a cell viability assay.
# NB17 = format: functional, cell-based, Homo sapiens;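 further: growth inhibition of NB17 cells, read out with a cell viability assay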
# Description: SANGER: Inhibition of human NB17 cell growth in a cell viability assay.
# A673 = format: functional, cell-based; conditions: Homo sapiens;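 further: growth inhibition of human A673 cells, read out through a cell viability assay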
# Description: SANGER: Inhibition of human A673 cell growth in a cell viability assay.
# KOSC-2 = format: functional, cell-based; conditions: Homo sapiens;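 further: growth inhibition of KOSC-2 cells, read out by a cell viability assay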
# Description: SANGER: Inhibition of human KOSC-2 cell growth in a cell viability assay.
# UO-31 = format: functional, cell-based; conditions: Homo sapiens;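 further: cell viability assay measuring inhibition of cell growth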
# Description: SANGER: Inhibition of human U031 cell growth in a cell viability assay.
# 8305C = format: functional, cell-based; conditions: Homo sapiens
# Description: SANGER: Inhibition of human 8305C cell growth in a cell viability assay.
# SW1463 = format: functional, cell-based; conditions: Homo sapiens;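 further: growth inhibition of SW1463 cells, determined with a cell viability assay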
# Description: SANGER: Inhibition of human SW1463 cell growth in a cell viability assay.
# Calu-3 = format: functional, cell-based; conditions: Homo sapiens;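 further: growth inhibition of human Calu-3 cells, determined with a cell viability assay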
# Description: SANGER: Inhibition of human Calu-3 cell growth in a cell viability assay.
# RVH-421 = format: functional, cell-based; conditions: Homo sapiens
# Description: SANGER: Inhibition of human RVH-421 cell growth in a cell viability assay.
# MKN-7 = format: functional, cell-based; conditions: Homo sapiens;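 further: growth inhibition of MKN-7 cells, read out with a cell viability assay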
# Description: SANGER: Inhibition of human MKN7 cell growth in a cell viability assay.
# SN12C = format: functional, cell-based; conditions: Homo sapiens;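 further: growth inhibition of human SN12C cells, measured by a cell viability assay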
# Description: SANGER: Inhibition of human SN12C cell growth in a cell viability assay.
# M14 = format: functional, cell-based; conditions: Homo sapiens;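 further: growth inhibition of M14 cells, read out with a cell viability assay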
# Description: SANGER: Inhibition of human M14 cell growth in a cell viability assay.
# OVCAR-8 = format: functional, cell-based; conditions: Homo sapiens;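 further: growth inhibition of human OVCAR-8 cells, read out by a cell viability assay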
# Description: SANGER: Inhibition of human OVCAR-8 cell growth in a cell viability assay.
# SAOS-2 = format: functional, cell-based; conditions: Homo sapiens;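 further: growth inhibition of human Saos-2 cells determined by a cell viability assay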
# Description: SANGER: Inhibition of human Saos-2 cell growth in a cell viability assay.
# RPMI-7951 = format: functional, cell-based; conditions: Homo sapiens
# Description: SANGER: Inhibition of human RPMI-7951 cell growth in a cell viability assay.
# LCLC-103H cell line = format: functional, cell-based; conditions: Homo sapiens
# Description: SANGER: Inhibition of human LCLC-103H cell growth in a cell viability assay.
# SW837 = format: functional, cell-based; conditions: Homo sapiens;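 further: growth inhibition of SW837 cells, determined with a cell viability assay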
# Description: SANGER: Inhibition of human SW837 cell growth in a cell viability assay.
# SW1417 = format: functional, cell-based; conditions: Homo sapiens;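 further: growth inhibition of human SW1417 cells, read out with a cell viability assay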
# Description: SANGER: Inhibition of human SW1417 cell growth in a cell viability assay.
# NCI-H2052 = format: functional, cell-based; conditions: Homo sapiens;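 further: growth inhibition of NCI-H2052 cells, read out with a cell viability assay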
# Description: SANGER: Inhibition of human NCI-H2052 cell growth in a cell viability assay.
# SW13 = format: functional, cell-based; conditions: Homo sapiens;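 further: IC50 is inhibition of SW13 cell growth, read out with a cell viability assay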
# Description: SANGER: Inhibition of human SW13 cell growth in a cell viability assay.
# CAL-27 = format: functional, cell-based; conditions: Homo sapiens;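 further: Viability-based readout, IC50 reflecting inhibition of CAL-27 cell growth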
# Description: SANGER: Inhibition of human CAL-27 cell growth in a cell viability assay.
# NCI-H661 = format: functional, cell-based; conditions: Homo sapiens;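 further: cell viability assay read-out, IC50 being the concentration that inhibits growth of the cells by half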
# Description: SANGER: Inhibition of human NCI-H661 cell growth in a cell viability assay.
# PANC-08-13 = format: functional, cell-based; conditions: Homo sapiens;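 further: cell growth inhibition, measured with a cell viability assay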
# Description: SANGER: Inhibition of human PANC-08-13 cell growth in a cell viability assay.
# HT1197 = format: functional, cell-based, HT-1197; conditions: Homo sapiens
# Description: SANGER: Inhibition of human HT-1197 cell growth in a cell viability assay.
# HN = format: functional, cell-based; conditions: Homo sapiens
# Description: SANGER: Inhibition of human HN cell growth in a cell viability assay.
# ESS-1 = format: functional, cell-based; conditions: Homo sapiens;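 further: growth inhibition of human ESS-1 cells, read out by a cell viability assay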
# Description: SANGER: Inhibition of human ESS-1 cell growth in a cell viability assay.
# MeWo = format: functional, cell-based; conditions: Homo sapiens;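 further: growth inhibition of MeWo cells, determined by a cell viability readout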
# Description: SANGER: Inhibition of human Mewo cell growth in a cell viability assay.
# EW-22 = format: functional, cell-based; conditions: Homo sapiens;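 further: growth inhibition of the EW-22 cell line, measured with a cell viability readout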
# Description: SANGER: Inhibition of human EW-22 cell growth in a cell viability assay.
# MKN-45 = format: functional, cell-based; conditions: Homo sapiens;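 further: growth inhibition of human MKN-45 cells, measured with a cell viability assay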
# Description: SANGER: Inhibition of human MKN45 cell growth in a cell viability assay.
# HuP-T3 = format: functional, cell-based; conditions: Homo sapiens;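 further: HuP-T3 cell growth inhibition, read out with a cell viability assay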
# Description: SANGER: Inhibition of human HuP-T3 cell growth in a cell viability assay.
# T47D = format: functional, cell-based; conditions: Homo sapiens;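 further: growth inhibition of human T47D cells, measured with a cell viability assay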
# Description: SANGER: Inhibition of human T47D cell growth in a cell viability assay.
# Daoy = format: functional, cell-based; conditions: Homo sapiens;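 further: daoy cell growth inhibition, read out as cell viability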
# Description: SANGER: Inhibition of human Daoy cell growth in a cell viability assay.
# SW756 = format: functional, cell-based; conditions: Homo sapiens;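 further: growth inhibition of human SW756 cells, read out with a cell viability assay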
# Description: SANGER: Inhibition of human SW756 cell growth in a cell viability assay.
# SIMA = format: functional, cell-based, Homo sapiens; conditions: sima;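 further: growth inhibition of SIMA cells, measured with a cell viability readout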
# Description: SANGER: Inhibition of human SIMA cell growth in a cell viability assay.
# TE-441-T = format: functional, cell-based, Homo sapiens; conditions: te-441-t
# Description: SANGER: Inhibition of human TE-441-T cell growth in a cell viability assay.
# D-542MG = format: functional, cell-based; conditions: Homo sapiens
# Description: SANGER: Inhibition of human D-542MG cell growth in a cell viability assay.
# Daudi = format: functional, cell-based, Homo sapiens; conditions: daudi;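 further: growth inhibition of Daudi cells, read out by a viability assay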
# Description: SANGER: Inhibition of human Daudi cell growth in a cell viability assay.
# MRK-nu-1 = format: functional, cell-based, Homo sapiens; conditions: mrk-nu-1;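 further: cell viability assay measuring growth suppression of human MRK-nu-1 cells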
# Description: SANGER: Inhibition of human MRK-nu-1 cell growth in a cell viability assay.
# REH = format: functional, cell-based, Homo sapiens; conditions: reh;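 further: growth inhibition of REH cells determined with a cell viability read-out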
# Description: SANGER: Inhibition of human REH cell growth in a cell viability assay.
# LU-165 = format: functional, cell-based, Homo sapiens; conditions: lu-165
# Description: SANGER: Inhibition of human LU-165 cell growth in a cell viability assay.
# NCI-H510A = format: functional, cell-based, Homo sapiens;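 further: growth inhibition of NCI-H510A cells, read out with a cell viability assay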
# Description: SANGER: Inhibition of human NCI-H510A cell growth in a cell viability assay.
# SCC-3 = format: functional, cell-based, Homo sapiens;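 further: cell viability assay measuring inhibition of SCC-3 cell growth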
# Description: SANGER: Inhibition of human SCC-3 cell growth in a cell viability assay.
# NCI-H1882 = format: functional, cell-based, Homo sapiens; conditions: nci-h1882;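 further: growth inhibition of the cell line, determined with a viability assay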
# Description: SANGER: Inhibition of human NCI-H1882 cell growth in a cell viability assay.
# GDM-1 = format: functional, cell-based, Homo sapiens; conditions: gdm-1; read-out: IC50;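 further: cell viability readout used to measure growth inhibition of human GDM-1 cells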
# Description: SANGER: Inhibition of human GDM-1 cell growth in a cell viability assay.
# BC-3 = format: functional, cell-based, Homo sapiens;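 further: cell viability assay measuring growth inhibition of human BC-3 cells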
# Description: SANGER: Inhibition of human BC-3 cell growth in a cell viability assay.
# CAL-148 = format: functional, cell-based, Homo sapiens; conditions: cal-148
# Description: SANGER: Inhibition of human CAL-148 cell growth in a cell viability assay.
# LB647-SCLC = format: functional, cell-based, Homo sapiens;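 further: cell growth inhibition, read out by a viability assay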
# Description: SANGER: Inhibition of human LB647-SCLC cell growth in a cell viability assay.
# CA46 = format: functional, cell-based, Homo sapiens;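 further: growth inhibition of human CA46 cells, read out by a cell viability assay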
# Description: SANGER: Inhibition of human CA46 cell growth in a cell viability assay.
# SIG-M5 = format: functional, cell-based, Homo sapiens; conditions: sig-m5;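 further: cell viability assay read-out, measuring how strongly growth of cultured human SIG-M5 cells is inhibited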
# Description: SANGER: Inhibition of human SIG-M5 cell growth in a cell viability assay.
smiles,measurement,setting,value
O=C1NC(=O)c2c1c(-c1ccccc1Cl)cc1[nH]c3ccc(O)cc3c21,IC50,ASPC1,> 2 µM
same,IC50,ChaGo-K-1,> 2 µM
same,IC50,LN-405,> 2 µM
same,IC50,CWR22R,> 2 µM
same,IC50,BCPAP,> 2 µM
same,IC50,BEN,> 2 µM
same,IC50,NCI-H630,1.93 µM
same,IC50,KYSE-270,1.48 µM
same,IC50,SK-HEP1,> 2 µM
same,IC50,NCI-H358,> 2 µM
same,IC50,JEG-3,> 2 µM
same,IC50,"NB17; Homo sapiens, NB17",> 2 µM
same,IC50,A673,> 2 µM
same,IC50,KOSC-2,> 2 µM
same,IC50,UO-31,> 2 µM
same,IC50,8305C,> 2 µM
same,IC50,SW1463,> 2 µM
same,IC50,Calu-3,> 2 µM
same,IC50,RVH-421,> 2 µM
same,IC50,MKN-7,> 2 µM
same,IC50,SN12C,> 2 µM
same,IC50,M14,1.69 µM
same,IC50,OVCAR-8,1.18 µM
same,IC50,SAOS-2,> 2 µM
same,IC50,RPMI-7951,> 2 µM
same,IC50,LCLC-103H cell line,> 2 µM
same,IC50,SW837,> 2 µM
same,IC50,SW1417,> 2 µM
same,IC50,NCI-H2052,> 2 µM
same,IC50,SW13,> 2 µM
same,IC50,CAL-27,> 2 µM
same,IC50,NCI-H661,> 2 µM
same,IC50,PANC-08-13,> 2 µM
same,IC50,HT1197,> 2 µM
same,IC50,HN,1.3 µM
same,IC50,ESS-1,> 2 µM
same,IC50,MeWo,> 2 µM
same,IC50,EW-22,> 2 µM
same,IC50,MKN-45,0.852 µM
same,IC50,HuP-T3,> 2 µM
same,IC50,T47D,> 2 µM
same,IC50,Daoy,> 2 µM
CN(C)CCOc1ccc(-c2nc(-c3ccncc3)c(-c3ccc4c(c3)CC/C4=N\O)[nH]2)cc1 [SB590885],IC50,ASPC1,> 5 µM
same,IC50,ChaGo-K-1,> 5 µM
same,IC50,LN-405,> 5 µM
same,IC50,CWR22R,> 5 µM
same,IC50,BCPAP,> 5 µM
same,IC50,BEN,> 5 µM
same,IC50,NCI-H630,> 5 µM
same,IC50,SW756,> 5 µM
same,IC50,KYSE-270,> 5 µM
same,IC50,SK-HEP1,> 5 µM
same,IC50,JEG-3,> 5 µM
same,IC50,"NB17; Homo sapiens, NB17",> 5 µM
same,IC50,A673,> 5 µM
same,IC50,KOSC-2,> 5 µM
same,IC50,UO-31,> 5 µM
same,IC50,8305C,> 5 µM
same,IC50,SW1463,> 5 µM
same,IC50,Calu-3,> 5 µM
same,IC50,RVH-421,0.621 µM
same,IC50,MKN-7,> 5 µM
same,IC50,SN12C,> 5 µM
same,IC50,M14,0.0808 µM
same,IC50,OVCAR-8,> 5 µM
same,IC50,SAOS-2,> 5 µM
same,IC50,RPMI-7951,> 5 µM
same,IC50,LCLC-103H cell line,> 5 µM
same,IC50,SW1417,> 5 µM
same,IC50,NCI-H2052,> 5 µM
same,IC50,CAL-27,> 5 µM
same,IC50,NCI-H661,> 5 µM
same,IC50,PANC-08-13,> 5 µM
same,IC50,HT1197,> 5 µM
same,IC50,HN,> 5 µM
same,IC50,ESS-1,> 5 µM
same,IC50,MeWo,> 5 µM
same,IC50,EW-22,> 5 µM
same,IC50,HuP-T3,> 5 µM
same,IC50,T47D,> 5 µM
same,IC50,Daoy,> 5 µM
NC1(c2ccc(-c3nc4ccn5c(=O)[nH]nc5c4cc3-c3ccccc3)cc2)CCC1 [MK-2206],IC50,ASPC1,0.221 µM
same,IC50,ChaGo-K-1,> 4 µM
same,IC50,LN-405,> 4 µM
same,IC50,CWR22R,> 4 µM
same,IC50,BCPAP,> 4 µM
same,IC50,BEN,> 4 µM
same,IC50,NCI-H630,> 4 µM
same,IC50,SW756,> 4 µM
same,IC50,KYSE-270,> 4 µM
same,IC50,SK-HEP1,> 4 µM
same,IC50,JEG-3,> 4 µM
same,IC50,"NB17; Homo sapiens, NB17",> 4 µM
same,IC50,A673,> 4 µM
same,IC50,KOSC-2,> 4 µM
same,IC50,8305C,> 4 µM
same,IC50,SW1463,> 4 µM
same,IC50,Calu-3,> 4 µM
same,IC50,RVH-421,3.82 µM
same,IC50,MKN-7,> 4 µM
same,IC50,SN12C,> 4 µM
same,IC50,M14,> 4 µM
same,IC50,OVCAR-8,> 4 µM
same,IC50,SAOS-2,> 4 µM
same,IC50,RPMI-7951,> 4 µM
same,IC50,LCLC-103H cell line,> 4 µM
same,IC50,SW1417,> 4 µM
same,IC50,NCI-H2052,> 4 µM
same,IC50,CAL-27,> 4 µM
same,IC50,NCI-H661,> 4 µM
same,IC50,PANC-08-13,> 4 µM
same,IC50,HT1197,> 4 µM
same,IC50,HN,> 4 µM
same,IC50,ESS-1,> 4 µM
same,IC50,MeWo,> 4 µM
same,IC50,EW-22,> 4 µM
same,IC50,HuP-T3,> 4 µM
same,IC50,T47D,0.282 µM
same,IC50,Daoy,> 4 µM
CC(C)C[C@@H](C=O)NC(=O)[C@H](CC(C)C)NC(=O)[C@H](CC(C)C)NC(=O)OCc1ccccc1 [MG-132] (Cbz-Leu-Leu-Leu-aldehyde),IC50,SIMA,> 1 µM
same,IC50,TE-441-T,> 1 µM
same,IC50,D-542MG,0.0596 µM
same,IC50,Daudi,> 1 µM
same,IC50,MRK-nu-1,> 1 µM
same,IC50,REH,> 1 µM
same,IC50,LU-165,> 1 µM
same,IC50,"NCI-H510A; Homo sapiens, NCI-H510A",> 1 µM
same,IC50,NCI-H510A; nci-h510a,> 1 µM
same,IC50,"SCC-3; Homo sapiens, SCC-3",> 1 µM
same,IC50,SCC-3; scc-3,> 1 µM
same,IC50,NB17; nb17,0.43 µM and > 1 µM
same,IC50,NCI-H1882,0.59 µM and > 1 µM
same,IC50,GDM-1,0.351 µM and > 1 µM
same,IC50,"BC-3; Homo sapiens, BC-3",> 1 µM
same,IC50,BC-3; bc-3,> 1 µM
same,IC50,CAL-148,> 1 µM
same,IC50,"LB647-SCLC; Homo sapiens, LB647-SCLC",> 1 µM
same,IC50,LB647-SCLC; lb647-sclc,> 1 µM
same,IC50,"CA46; Homo sapiens, CA46",> 1 µM
same,IC50,CA46; ca46,> 1 µM
same,IC50,SIG-M5,> 1 µM
same,IC50,EW-22,> 1 µM
